Reference: paper PMC5700161, “Structure of human immunoproteasome with a reversible and noncompetitive inhibitor that selectively inhibits activated lymphocytes” (Nature Communications, 2017)

Experiments:
[1] = target: T1, β5i in Karpas 1106P cells (Homo sapiens, UniProt P20618+P28062); assay: Intracellular β5i activity in Karpas 1106P cells, (Ac-ANW)2-R110; assay type: cell-based
T1 construct: host or cells: Karpas 1106P
Protocol: (§1) To determine if this class of inhibitors is cell penetrable, we treated the B-cell lymphoma line Karpas 1106P[28] (expressing a high proportion of i-20S over c-20S) with PKS21221 before incubation with either (Ac-ANW)2-R110 (a specific substrate of β5i) or suc-LLVY-luciferin (a substrate of β5) (Fig. 4a). […] No β5i activity was detected in HepG2 cells using (Ac-ANW)2-R110 as a substrate.
(§2) Cell viability was determined by CellTiter-glo.
(§3) Intracellular proteasomal activity and inhibition assay were performed as reported. Karpas 1106P (80,000 cells per well) were plated and incubated with compound at indicated concentrations for 1 h at 37 °C. The activity of the overall β5 activity including β5i and β5c in each was measured in situ after compound removal with Proteasome-Glo assay kit according to manufacturer’s instructions. Luminescence was recorded on a SpectraMax M5 plate reader. Relative percentage of RLU was used to calculate the IC50s.

[2] = system: luciferase; assay: Luciferase counter-test; assay type: biochemical; details: at 100 µM, tested over 0.002–100 µM
[3] = system: Karpas 1106P cells; assay: Cytotoxicity, CellTiter-glo, Karpas 1106P; details: read-out: EC50 Karpas, 72 h
Protocol: (§4) Fig. 4 Intracellular proteasome inhibition by PKS21221 and its cytotoxicity against transformed cell lines. a Karpas 1106P lymphoma cells (white and black symbols) or HepG2 cells (blue symbols) were treated with PKS21221 for 2 h at the concentrations indicated prior to incubation with substrate (Ac-ANW)2R110 for β5i (Karpas cells) or suc-LLVY-luciferin for β5 (Karpas cells and HepG2 cells). […] Cell viability was determined by CellTiter-glo. Data are means ± SEM of three to four independent experiments
(§5) We incubated MM.1S, RPMI 8226, Karpas and HepG2 cells with PKS21221 at different concentrations, and determined cell viability after 72 h (Fig. 4b).
(§6) We used Karpas 1106P B lymphoma cell line (Cat. No. 06072607, Aldrich)[15],[16],[52], HepG2 (HB-8065, ATCC), MM.1S (Cat. No. CRL-2974, ATCC). Cells were cultured at 37 °C in a humidified air/5% CO2 atmosphere in medium supplemented with 10% fetal bovine serum, except for the medium for Karpas 1106P cells which contained 20% fetal bovine serum, and 100 units per ml penicillin, 100 μg per ml streptomycin in RPMI 1640 medium. Karpas 1106P was used at 80,000 cells per well, MM.1S at 100,000 cells per well, and HepG2 at 12,000 cells per well. […] Viable cells were counted using Cell-titer Glo assay kit. EC50s were calculated using PRISM (Graphpad).

[4] = target: T2, β5i (i-20S) (Homo sapiens, UniProt P20618+P28062); assay: Kinetics studies of modality of inhibition against β5i; assay type: biochemical
T2 construct: purchased Boston Biochem
Protocol: Data as in d are shown in double reciprocal plots in e, and data from f in g. […] Data are means ± SEM of three independent experiments […]
With increasing concentrations of PKS21004, both V max and K M decreased (Fig. 1d–g and Supplementary Fig. 1). […] This class thus joins a growing list of noncompetitive proteasome inhibitors[5],[30].
Supplementary Figure 11. Inhibition kinetics of PKS21221 against i-20S β5i. (A) Steady state velocities of the Ac-ANW-AMC hydrolysis at 10, 15, 25, 35 µM by i-20S β5i (0.4 nM) in the presence of PKS21221 at indicated concentrations were determined at 37 °C and plotted by RFU versus substrate concentration (A); values of KM, Ki and α were estimated by PRISM using equation V = (Vmax / (1 + I / (α*Ki))) * S / (KM * (1+ I / Ki) / (1 + I / (α*Ki)) + S); (B) Lineweaver-Burk plot of the data in (A). (C) Plot of KM versus concentrations of PKS21221 indicates a mixed type inhibition. (D) Plot of Vmax versus concentrations of PKS21221.
(1 picture or pasted object on this page, not shown here)

[5] = system: HepG2 cells; assay: Cytotoxicity, CellTiter-glo, HepG2; details: read-out: EC50 HepG2, 72 h
Protocol: as §4, §5, §6

[6] = target: β1c (Homo sapiens, UniProt P28072); assay: IC50 against β1c of human constitutive proteasome (Z-LLE-AMC); details: read-out: IC50 1c - LLE (β1c); substrate Z-LLE-AMC
Protocol: IC50s of all compounds against β5i and β5c (Table 2) and against β1i, β2i, β1c, and β2c (Supplementary Table 1) were determined following reported methods[8].

[7] = target: T3, β5c in HepG2 cells (Homo sapiens, UniProt P20618+P28074); assay: Intracellular β5c activity in HepG2 cells, suc-LLVY-luciferin; assay type: cell-based
T3 construct: host or cells: HepG2
Protocol: as §1, §2, §3

Q: Which results are given for `Cc1ccc(S(=O)(=O)N[C@@H](CC(=O)NC(C)(C)C)C(=O)NCCNC(=O)c2cc(-c3ccccc3F)ccc2F)cc1` [PKS21221]?
A: IC50 [1]: 172 ± 33 nM; inhibition of luciferase activity [2]: does not inhibit; EC50 [3]: 740 ± 145 nM; α for β5i (αi-20S) [4]: 0.26; modality of inhibition of β5i ([4]; versus substrate): noncompetitive; EC50 [5]: 2320 ± 630 nM; IC50 [6]: > 50000 nM; IC50 [7]: 1830 ± 138 nM
